From patent US20260159528A1, “HETEROCYCLIC COMPOUNDS AS TRIGGERING RECEPTOR EXPRESSED ON MYELOID CELLS 2 AGONISTS AND METHODS OF USE” (Vigil Neuroscience, Inc., priority 2021, published 2026)

molecular target: T1, human TREM2 (Homo sapiens, UniProt Q9NZC2); experiment: TREM2 agonist potency by cellular Syk phosphorylation (AlphaLisa) in HEK293T-hTREM2 cells; assay type: cell-based; settings: Table D-2; HEK293 cells expressing human TREM2 and DAP12; pSyk AlphaLisa
T1 construct: expressed in transfected cells; host or cells: HEK293T
Experimental: In vitro Measurement of Triggering Receptor Expressed on Myeloid Cells 2 activity using cellular phosphorylation of Spleen Tyrosine Kinase (“Syk”) Assays
Measurement of TREM2 agonist potency was done using a HEK cell line expressing human TREM2 and DAP12 (HEK293T-hTREM2 cells). Binding of small molecules to, and activation of, TREM2 increases the phosphorylation of Syk. The resultant levels of Syk phosphorylation are measured using a commercial AlphaLisa reagent kit. To perform the assay, HEK-hTREM2 cells were plated at 14,000 cells per well in a 384 well plate, in 25 µL of complete growth media and incubated at 37° C., 5% CO2 for 20-24 hours.
Prior to the assay, test compounds were diluted in the 384 well plates in assay buffer and allowed to equilibrate for 30 minutes. Growth media was removed from cell plates by inversion on blotting paper, and 25 μL of test articles in assay buffer was added to cells. Cells were incubated for 45 minutes at room temperature. After 45 minutes, assay buffer was removed and 10 μL of lysis buffer was added. Plates were shaken for 20 minutes at 350 RPM at room temperature. After complete lysis, AlphaLisa reagents were added to the lysate, and fluorescence intensity was measured using a Perkin Elmer Envision plate reader. Intensities were used to generate a standard curve, and % activation was calculated. Curve fitting was performed using Prism v9 software, log(agonist) vs response—variable slope (four parameters), and EC50s were calculated from the curve fit.
The results presented in Table D have been generated with the in vitro assay described above. This assay may be used to test any of the compounds described herein to assess and characterize a compound's ability to act as an agonist of TREM2.

T1 sequence (Q9NZC2 19-230): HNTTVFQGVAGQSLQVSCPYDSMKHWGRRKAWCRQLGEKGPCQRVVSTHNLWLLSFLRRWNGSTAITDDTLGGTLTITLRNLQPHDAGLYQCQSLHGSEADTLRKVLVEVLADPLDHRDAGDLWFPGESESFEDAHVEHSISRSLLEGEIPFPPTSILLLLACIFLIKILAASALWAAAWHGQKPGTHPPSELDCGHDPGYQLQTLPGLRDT
T1 sequence (O43914 22-113 partner): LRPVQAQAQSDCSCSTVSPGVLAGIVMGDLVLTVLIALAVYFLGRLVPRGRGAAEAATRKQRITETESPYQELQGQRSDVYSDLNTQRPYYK

Compound | EC50
Fc1cc(C(F)(F)F)ccc1-c1nc([C@@H]2CCO[C@@H](c3cnn(C4CC4)c3)C2)nc2nc(N3CCC3)sc12 (single isomer, unassigned) [Compound I-248] | 50 to 500 nM
Fc1cc(C(F)(F)F)ccc1-c1nc([C@H]2CCO[C@@H](c3cnn(C4CC4)c3)C2)nc2nc(N3CCC3)sc12 (single isomer, unassigned) [Compound I-249] | ≤ 50 nM
CO[C@@H]1CCN(c2nc3nc([C@H]4CCO[C@@H](c5cnn(C6CC6)c5)C4)nc(-c4ccc(C(F)(F)F)cc4F)c3s2)C1 [Compound I-164, 5-((2R,4S)-2-(1-cyclopropyl-1H-pyrazol-4-yl)tetrahydro-2H-pyran-4-yl)-7-(2-fluoro-4-(trifluoromethyl)phenyl)-2-((R)-3-methoxypyrrolidin-1-yl)thiazolo[4,5-d]pyrimidine] | 50 to 500 nM
C[C@@H]1CN(c2nc(-c3ccc(Cl)cc3F)c3sc(N(C)CC4CC4)nc3n2)C[C@H](c2cnn(C3CC3)c2)O1 [Compound I-109, 7-(4-chloro-2-fluoro-phenyl)-N-(cyclopropylmethyl)-N-methyl-5-[(2S,6R)-2-(1-cyclopropylpyrazol-4-yl)-6-methyl-morpholin-4-yl]thiazolo[4,5-d]pyrimidin-2-amine] | 50 to 500 nM
CC(C)n1cc2c(-c3ccc(F)cc3F)nc(N3C[C@@H](C)O[C@@H](c4cnn(C5CC5)c4)C3)nc2n1 [Compound I-129, (2S,6R)-2-(1-cyclopropyl-1H-pyrazol-4-yl)-4-(4-(2,4-difluorophenyl)-2-isopropyl-2H-pyrazolo[3,4-d]pyrimidin-6-yl)-6-methylmorpholine] | 50 to 500 nM
CN(C)c1nc2nc([C@H]3CCO[C@@H](c4cnn(C5CC5)c4)C3)nc(-c3ccc(Cl)cc3F)c2s1 (single isomer, unassigned) [Compound I-79] | ≤ 50 nM
C[C@@H]1CN(c2nc(-c3c(F)cc(F)cc3F)c3sc(N(C)C)nc3n2)C[C@H](c2cnn(C3CC3)c2)O1 [Compound I-240, 5-[(2S,6R)-2-(1-cyclopropylpyrazol-4-yl)-6-methyl-morpholin-4-yl]-N,N-dimethyl-7-(2,4,6-trifluorophenyl)thiazolo[4,5-d]pyrimidin-2-amine] | ≤ 50 nM
CN(C)c1nc2nc([C@H]3CCO[C@@H](c4cnn(C5CC5)c4)C3)nc(-c3ccc(F)cc3F)c2n1C [Compound I-303, 2-((2R,4S)-2-(1-cyclopropyl-1H-pyrazol-4-yl)tetrahydro-2H-pyran-4-yl)-6-(2,4-difluorophenyl)-N,N,7-trimethyl-7H-purin-8-amine] | 50 to 500 nM
C[C@@H]1CN(c2nc(-c3ccc(F)cc3F)c3c(ncn3C)n2)C[C@H](c2cnn(C3CC3)c2)O1 [Compound I-124, (2S,6R)-2-(1-cyclopropyl-1H-pyrazol-4-yl)-4-(6-(2,4-difluorophenyl)-7-methyl-7H-purin-2-yl)-6-methylmorpholine] | 500 to 3000 nM
CN(C)c1nc2nc([C@H]3CCO[C@@H](c4cnn(C5CC5)c4)C3)nc(C3CCCCC3)c2s1 (single isomer, unassigned) [Compound I-174] | 500 to 3000 nM
CN(C)c1nc2nc([C@@H]3CCO[C@@H](c4ccc(=O)n(C)c4)C3)nc(-c3ccc(F)cc3F)c2s1 (racemic) [Compound I-289, 5-[(2R,4R)-4-[7-(2,4-difluorophenyl)-2-(dimethylamino)thiazolo[4,5-d]pyrimidin-5-yl]tetrahydropyran-2-yl]-1-methyl-pyridin-2-one] | 50 to 500 nM
CN(C)c1nc2nc(C3CCOC(c4ccc(=O)n(C)c4)C3)nc(-c3ccc(F)cc3F)c2s1 (racemic) [Compound I-288, 5-[4-[7-(2,4-difluorophenyl)-2-(dimethylamino)thiazolo[4,5-d]pyrimidin-5-yl]tetrahydropyran-2-yl]-1-methyl-pyridin-2-one] | ≤ 50 nM
CCN(C)c1nc2nc(N3C[C@@H](C)O[C@@H](c4cnn(C5CC5)c4)C3)nc(-c3ccc(Cl)cc3F)c2s1 (single isomer, unassigned) [Compound I-119] | 500 to 3000 nM
CO[C@H]1CCN(c2nc3nc([C@H]4CCO[C@@H](c5cnn(C6CC6)c5)C4)nc(-c4ccc(C(F)(F)F)cc4F)c3s2)C1 [Compound I-165, 5-[(2R)-2-(1-cyclopropylpyrazol-4-yl)tetrahydropyran-4-yl]-7-[2-fluoro-4-(trifluoromethyl)phenyl]-2-[(3S)-3-methoxypyrrolidin-1-yl]thiazolo[4,5-d]pyrimidine] | 50 to 500 nM
Cc1cc([C@H]2C[C@@H](c3nc(-c4ccc(F)cc4F)c4sc(N(C)C)nc4n3)CCO2)ccn1 [Compound I-268, 7-(2,4-difluorophenyl)-N,N-dimethyl-5-[(2R,4S)-2-(2-methyl-4-pyridyl)tetrahydropyran-4-yl]thiazolo[4,5-d]pyrimidin-2-amine] | 50 to 500 nM
Cc1cc([C@H]2CN(c3nc(-c4ccc(C(F)(F)F)cc4F)c4sc(N(C)C)nc4n3)CCC2(F)F)ccn1 (single isomer, unassigned) [Compound I-202] | 50 to 500 nM
C[C@@H]1CN(c2nc(-c3ccc(Cl)cc3F)c3sc(N(C)CCF)nc3n2)C[C@H](c2cnn(C3CC3)c2)O1 (single isomer, unassigned) [Compound I-114] | 50 to 500 nM
Fc1cc(C(F)(F)F)ccc1-c1nc([C@@H]2CCO[C@@H](c3cnn(C4CC4)c3)C2)nc2nc(C3CC3)sc12 (single isomer, unassigned) [Compound I-278] | 500 to 3000 nM
CN(C)c1nc2nc(N3CCC(F)(F)[C@H](c4cnn(C5CC5)c4)C3)nc(-c3ccc(C(F)(F)F)cc3F)c2s1 (single isomer, unassigned) [Compound I-200] | 50 to 500 nM
Cc1cc(C2CCCN(c3nc(-c4ccc(C(F)(F)F)cc4F)c4sc(N(C)C)nc4n3)C2)ccn1 (racemic) [Compound I-196, 7-(2-fluoro-4-(trifluoromethyl)phenyl)-N,N-dimethyl-5-(3-(2-methylpyridin-4-yl)piperidin-1-yl)thiazolo[4,5-d]pyrimidin-2-amine] | 50 to 500 nM
CS(=O)(=O)c1nc2nc([C@H]3CCO[C@@H](c4cnn(C5CC5)c4)C3)nc(-c3ccc(C(F)(F)F)cc3N3CCC3)c2s1 [Compound I-253, 7-[2-(azetidin-1-yl)-4-(trifluoromethyl)phenyl]-5-[(2R,4S)-2-(1-cyclopropylpyrazol-4-yl)tetrahydropyran-4-yl]-2-methylsulfonyl-thiazolo[4,5-d]pyrimidine] | 50 to 500 nM
C[C@@H]1CN(c2nc(-c3ccc(C(F)(F)F)cc3F)c3c(n2)nc(N(C)C)n3C)C[C@H](c2cnn(C3CC3)c2)O1 [Compound I-283, 2-((2S,6R)-2-(1-cyclopropyl-1H-pyrazol-4-yl)-6-methylmorpholino)-6-(2-fluoro-4-(trifluoromethyl)phenyl)-N,N,7-trimethyl-7H-purin-8-amine] | ≤ 50 nM

same assay, conditions: Table D; HEK293 cells expressing human TREM2 and DAP12; pSyk AlphaLisa

Compound | EC50
Cc1nc2nc([C@H]3CCO[C@@H](c4cnn(C5CC5)c4)C3)nc(-c3ccc(F)cc3F)c2s1 [Compound 4, 5-((2R,4S)-2-(1-cyclopropyl-1H-pyrazol-4-yl)tetrahydro-2H-pyran-4-yl)-7-(2,4-difluorophenyl)-2-methylthiazolo[4,5-d]pyrimidine] | 50 to 500 nM
Cc1cn2c(-c3ccc(Cl)cc3F)cc(N3CCOC(c4cnn(C5CC5)c4)C3)nc2n1 (stereo not drawn) [Compound I-26, 4-[5-(4-chloro-2-fluoro-phenyl)-2-methyl-imidazo[1,2-a]pyrimidin-7-yl]-2-(1-cyclopropylpyrazol-4-yl)morpholine] | 3000 to 100000 nM
